In ChEMBL document CHEMBL1135570, “Acyclic analogues of adenosine bisphosphates as P2Y receptor antagonists: phosphate substitution leads to multiple pathways of inhibition of platelet aggregation” (J Med Chem, 2002):

Species on record: Rattus norvegicus
Test: Inhibition of ADP-induced activation of rat platelets using aggregometry
Assay type: functional

| SMILES | Ki [µM] |
| --- | --- |
| CNc1nc(Cl)nc2c1ncn2CC(COC(=O)CCC(=O)O)COC(=O)CCC(=O)O | 18 |
| CNc1nc(Cl)nc2c1ncn2CC(COC(=O)c1c(F)cccc1F)COC(=O)c1c(F)cccc1F | 33 |
| CNc1nc(Cl)nc2c1ncn2CC(CCCP(=O)(O)O)CCCP(=O)(O)O | 25 |
| CNc1nc(Cl)nc2c1ncn2CC(COC(=O)C(C)(C)C)COP(=O)(O)O (stereo not drawn) | 29 |
| CNc1nc(Cl)nc2c1ncn2[C@H]1CC(OC(C)=O)[C@]2(COC(C)=O)CC12 (stereo partly drawn) | 29 |
| CNc1nc(Cl)nc2c1ncn2C(COP(=O)(O)O)COP(=O)(O)O | 5.5 |
| CNc1nc(Cl)nc2c1ncn2CC(CP(=O)(O)O)CP(=O)(O)O | 0.68 |
| CNc1nc(Cl)nc2c1ncn2CC(COC(=O)c1ccccc1)COC(=O)c1ccccc1 | 5.1 |
| CNc1nc(Cl)nc2c1ncn2[C@H]1CC(OC(C)=O)[C@]2(COP(=O)(O)O)CC12 (stereo partly drawn) | 10 |
| CNc1nc(Cl)nc2c1ncn2C[C@H](COP(=O)(O)O)OP(=O)(O)O | 2.6 |
| CNc1nc(Cl)nc2c1ncn2CC(COP(=O)(O)O)COP(=O)(O)O | 0.3 |
| CNc1nc(Cl)nc2c1ncn2CC(COC(C)=O)COP(=O)(O)O (stereo not drawn) | 110 |
| CNc1nc(Cl)nc2c1ncn2CCC(COP(=O)(O)O)COP(=O)(O)O | 0.46 |
| CNc1nc(Cl)nc2c1ncn2CC(COP(=O)(O)OP(=O)(O)O)CP(=O)(O)O (stereo not drawn) | 1.1 |
| CNc1nc(Cl)nc2c1ncn2[C@H]1CC(OP(=O)(O)O)[C@]2(COC(C)=O)CC12 (stereo partly drawn) | 16 |
| CCC(=O)OCC(COC(=O)CC)Cn1cnc2c(NC)nc(Cl)nc21 | 23 |
| CNc1ncnc2c1ncn2CC(COP(=O)(O)O)COP(=O)(O)O | 0.51 |
| CNc1nc(Cl)nc2c1ncn2CC(COC(=O)Cc1ccccc1)COC(=O)Cc1ccccc1 | 2 |
| CCNC(=O)O[C@@H]1CC(n2cnc3c(NC)nc(Cl)nc32)O[C@@H]1COP(=O)(O)O (stereo partly drawn) | 11 |

| SMILES | Ki [µM] |
| --- | --- |
| CNc1nc(Cl)nc2c1ncn2CC(COC(=O)c1ccccc1)COP(=O)(O)O (stereo not drawn) | 18 |
| CNc1nc(Cl)nc2c1ncn2[C@H]1C[C@@H](OP(=O)(O)O)[C@]2(COP(=O)(O)O)C[C@H]12 | 0.031 |
| CNc1nc(Cl)nc2c1ncn2[C@H]1C[C@@H](OP(=O)(O)O)[C@@H](COP(=O)(O)O)O1 | 0.42 |
| CNc1nc(Cl)nc2c1ncn2CC(COC(C)=O)COC(C)=O | 18 |
| CNc1nc(Cl)nc2c1ncn2CC(COC(=O)Nc1ccccc1)COC(=O)Nc1ccccc1 | 24 |
| CNc1nc(Cl)nc2c1ncn2C1C[C@@H](OC(=O)NC(C)C)[C@@H](COP(=O)(O)O)O1 (stereo partly drawn) | 6.4 |
| CNc1nc(Cl)nc2c1ncn2CC(COC(=O)Oc1ccccc1)COC(=O)Oc1ccccc1 | 26 |
| CNc1nc(Cl)nc2c1ncn2CC(COC(=O)C(C)(C)C)COC(=O)C(C)(C)C | 3.6 |
| CNc1nc(Cl)nc2c1ncn2CC(COC(=S)SCc1ccccc1)COC(=S)SCc1ccccc1 | 87 |
| CNc1nc(Cl)nc2c1ncn2[C@H]1CC(O)[C@]2(COP(=O)(O)O)CC12 (stereo partly drawn) | 33 |
| CNc1nc(Cl)nc2c1ncn2CC(COC(C)=O)COC(=O)c1ccccc1 (stereo not drawn) | 6.9 |
| CNc1nc(Cl)nc2c1ncn2CC(COC(=O)c1ccccc1F)COC(=O)c1ccccc1F | 24 |
| CNc1nc(Cl)nc2c1ncn2CC(COC(=O)Nc1ccccc1)COP(=O)(O)O (stereo not drawn) | 2.5 |
| CCC(=O)OCC(COP(=O)(O)O)Cn1cnc2c(NC)nc(Cl)nc21 (stereo not drawn) | 21 |
| CNc1nc(Cl)nc2c1ncn2C[C@@H](COP(=O)(O)O)OP(=O)(O)O | 1.4 |
| CNc1nc(Cl)nc2c1ncn2[C@H]1CC(OP(=O)(O)O)[C@]2(CO)CC12 (stereo partly drawn) | 29 |
| CNc1nc(Cl)nc2c1ncn2CC(COC(C)=O)COC(=O)Cc1ccccc1 (stereo not drawn) | 12.3 |
| C/C=C\C(=O)OCC(COC(=O)/C=C/C)Cn1cnc2c(NC)nc(Cl)nc21 (stereo not drawn) | 10 |
| CNc1ncnc2c1ncn2[C@H]1C[C@H](OP(=O)(O)O)[C@@H](COP(=O)(O)O)O1 | 0.58 |
